Laboratory results taken from PubChem BioAssay AID1963981 (Molecular Pharmacology Branch, DTP, NCI, 2024).

System: 354836-022-R-J1-PDC multicell spheroid viability
Test: Anticancer human tumor 354836-022-R-J1-PDC patient-derived head and neck squamous cell carcinoma cell line growth inhibition [PI3K]
Settings: for IC50: curve of first compound; for viability, T/C: stronger effect = lower value
In short: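 Stroma-containing spheroids: tumor line, pooled-donor HUVEC, hMSC. Treatments: targeted agents with PI3K inhibitors. Dosing: clinically relevant, half-log spacing, 10 microM ceiling without known Cmax. Read-out: cell viability.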

[1] = second compound 0.00316 µM, first compound 0.0316 µM
[2] = second compound 0.00316 µM, first compound 0.1 µM
[3] = second compound 0.00316 µM, first compound 0.316 µM
[4] = second compound 0.00316 µM, first compound 1 µM
[5] = second compound 0.00316 µM, first compound 3.16 µM
[6] = second compound 0.00316 µM, first compound 10 µM
[7] = second compound 0.01 µM, first compound 0.0316 µM
[8] = second compound 0.01 µM, first compound 0.1 µM
[9] = second compound 0.01 µM, first compound 0.316 µM
[10] = second compound 0.01 µM, first compound 1 µM
[11] = second compound 0.01 µM, first compound 3.16 µM
[12] = second compound 0.01 µM, first compound 10 µM
[13] = second compound 0.0316 µM, first compound 0.0316 µM
[14] = second compound 0.0316 µM, first compound 0.1 µM
[15] = second compound 0.0316 µM, first compound 0.316 µM
[16] = second compound 0.0316 µM, first compound 1 µM
[17] = second compound 0.0316 µM, first compound 3.16 µM
[18] = second compound 0.0316 µM, first compound 10 µM
[19] = second compound 0.1 µM, first compound 0.0316 µM
[20] = second compound 0.1 µM, first compound 0.1 µM
[21] = second compound 0.1 µM, first compound 0.316 µM
[22] = second compound 0.1 µM, first compound 1 µM
[23] = second compound 0.1 µM, first compound 3.16 µM
[24] = second compound 0.1 µM, first compound 10 µM
[25] = second compound 0.316 µM, first compound 0.0316 µM
[26] = second compound 0.316 µM, first compound 0.1 µM
[27] = second compound 0.316 µM, first compound 0.316 µM
[28] = second compound 0.316 µM, first compound 1 µM
[29] = second compound 0.316 µM, first compound 3.16 µM
[30] = second compound 0.316 µM, first compound 10 µM
[31] = second compound 1 µM, first compound 0.0316 µM
[32] = second compound 1 µM, first compound 0.1 µM
[33] = second compound 1 µM, first compound 0.316 µM
[34] = second compound 1 µM, first compound 1 µM
[35] = second compound 1 µM, first compound 3.16 µM
[36] = second compound 1 µM, first compound 10 µM
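Further: spheroids exposed to agents for seven days before the viability read.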

SMILES: C#Cc1c(F)ccc2cc(O)cc(-c3ncc4c(N5CC6CCC(C5)N6)nc(OCC56CCCN5CC(F)C6)nc4c3F)c12 (stereo unspecified) + COc1c(OCCCN2CCOCC2)ccc2c3n(c(=NC(=O)c4cnc(N)nc4)nc12)CCN3
- IC50 (second compound 0.00316 µM): > 10000 nM
- IC50 (second compound 0.01 µM): > 10000 nM
- IC50 (second compound 0.0316 µM): > 10000 nM
- IC50 (second compound 0.1 µM): 516 nM
- IC50 (second compound 0.316 µM): < 31.6 nM
- IC50 (second compound 1 µM): < 31.6 nM
- viability, T/C [1]: 113%
- viability, T/C [2]: 102%
- viability, T/C [3]: 107%
- viability, T/C [4]: 108%
- viability, T/C [5]: 111%
- viability, T/C [6]: 92.8%
- viability, T/C [7]: 98%
- viability, T/C [8]: 99%
- viability, T/C [9]: 96.3%
- viability, T/C [10]: 116%
- viability, T/C [11]: 92%
- viability, T/C [12]: 101%
- viability, T/C [13]: 79.4%
- viability, T/C [14]: 84.2%
- viability, T/C [15]: 96.4%
- viability, T/C [16]: 89.7%
- viability, T/C [17]: 74.1%
- viability, T/C [18]: 77.1%
- viability, T/C [19]: 56.1%
- viability, T/C [20]: 67.8%
- viability, T/C [21]: 52.9%
- viability, T/C [22]: 47.1%
- viability, T/C [23]: 45.6%
- viability, T/C [24]: 45.4%
- viability, T/C [25]: 14.6%
- viability, T/C [26]: 14%
- viability, T/C [27]: 12.9%
- viability, T/C [28]: 14.6%
- viability, T/C [29]: 11.4%
- viability, T/C [30]: 3.3%
- viability, T/C [31]: 2.48%
- viability, T/C [32]: 2.22%
- viability, T/C [33]: 1.66%
- viability, T/C [34]: 1.78%
- viability, T/C [35]: 1.73%
- viability, T/C [36]: 0.66%

SMILES: CC(Cn1ccc(-c2ccc(C#N)c(Cl)c2)n1)NC(=O)c1cc(C(C)O)[nH]n1 (stereo unspecified) + COc1c(OCCCN2CCOCC2)ccc2c3n(c(=NC(=O)c4cnc(N)nc4)nc12)CCN3
- IC50 (second compound 0.00316 µM): > 10000 nM
- IC50 (second compound 0.01 µM): > 10000 nM
- IC50 (second compound 0.0316 µM): > 10000 nM
- IC50 (second compound 0.1 µM): < 31.6 nM
- IC50 (second compound 0.316 µM): < 31.6 nM
- IC50 (second compound 1 µM): < 31.6 nM
- viability, T/C [1]: 119%
- viability, T/C [2]: 99.5%
- viability, T/C [3]: 106%
- viability, T/C [4]: 104%
- viability, T/C [5]: 102%
- viability, T/C [6]: 86.3%
- viability, T/C [7]: 98.8%
- viability, T/C [8]: 104%
- viability, T/C [9]: 92.5%
- viability, T/C [10]: 113%
- viability, T/C [11]: 105%
- viability, T/C [12]: 80%
- viability, T/C [13]: 69.6%
- viability, T/C [14]: 82.7%
- viability, T/C [15]: 85.2%
- viability, T/C [16]: 86.9%
- viability, T/C [17]: 88.5%
- viability, T/C [18]: 67.5%
- viability, T/C [19]: 48.4%
- viability, T/C [20]: 52.5%
- viability, T/C [21]: 52%
- viability, T/C [22]: 57.1%
- viability, T/C [23]: 58.1%
- viability, T/C [24]: 51.9%
- viability, T/C [25]: 11.8%
- viability, T/C [26]: 18.3%
- viability, T/C [27]: 15.1%
- viability, T/C [28]: 20.9%
- viability, T/C [29]: 15.2%
- viability, T/C [30]: 18.2%
- viability, T/C [31]: 2.74%
- viability, T/C [32]: 1.7%
- viability, T/C [33]: 1.89%
- viability, T/C [34]: 2.26%
- viability, T/C [35]: 2.15%
- viability, T/C [36]: 2.19%

SMILES: CC1(C)CCC(Nc2ncc(C(F)(F)F)c(-c3c[nH]c4c(P(C)(C)=O)c(C#N)ccc34)n2)CN1 (stereo unspecified) + COc1c(OCCCN2CCOCC2)ccc2c3n(c(=NC(=O)c4cnc(N)nc4)nc12)CCN3
- IC50 (second compound 0.00316 µM): < 31.6 nM
- IC50 (second compound 0.01 µM): < 31.6 nM
- IC50 (second compound 0.0316 µM): < 31.6 nM
- IC50 (second compound 0.1 µM): < 31.6 nM
- IC50 (second compound 0.316 µM): < 31.6 nM
- IC50 (second compound 1 µM): < 31.6 nM
- viability, T/C [1]: 12.1%
- viability, T/C [2]: 11.7%
- viability, T/C [3]: 11.3%
- viability, T/C [4]: 12.8%
- viability, T/C [5]: 15.3%
- viability, T/C [6]: 3.31%
- viability, T/C [7]: 13.1%
- viability, T/C [8]: 12.1%
- viability, T/C [9]: 13%
- viability, T/C [10]: 12.4%
- viability, T/C [11]: 15.3%
- viability, T/C [12]: 1.45%
- viability, T/C [13]: 9.55%
- viability, T/C [14]: 11.7%
- viability, T/C [15]: 11.4%
- viability, T/C [16]: 14.8%
- viability, T/C [17]: 13.4%
- viability, T/C [18]: 1.98%
- viability, T/C [19]: 9.95%
- viability, T/C [20]: 8.41%
- viability, T/C [21]: 9.5%
- viability, T/C [22]: 9.61%
- viability, T/C [23]: 8.75%
- viability, T/C [24]: 0.91%
- viability, T/C [25]: 3.76%
- viability, T/C [26]: 3.49%
- viability, T/C [27]: 5.12%
- viability, T/C [28]: 4.26%
- viability, T/C [29]: 4.19%
- viability, T/C [30]: 0.4%
- viability, T/C [31]: 1.25%
- viability, T/C [32]: 1.35%
- viability, T/C [33]: 1.58%
- viability, T/C [34]: 1.61%
- viability, T/C [35]: 1.3%
- viability, T/C [36]: 0.43%
